Laboratory results as given in patent publication US9211310B2, “Use of a Chinese medicine composition in preparing medicaments for treating secondary prevention of myocardial infarction” (TASLY PHARMACEUTICAL GROUP CO., LTD, priority 2010, dated 2015).

Test system: patients after acute myocardial infarction
Experiment: Life quality, Seattle Angina Questionnaire (SAQ), same clinical trial
Assay type: in vivo, human
Description: 3508 patients who were in accordance with the diagnostic standards of AMI for 28 days to 2 years and differentiated as Qi deficiency and blood stagnation syndrome by TCM were studied. 0.5 g Chinese medicine composition prepared by the method of EXAMPLE 1 (Coded as QSYQ) was administrated half an hour after meal, 3 times per day.
There were 19 questions in the Seattle angina questionnaire (SAQ), including 5 parts: physical limitation (PL), anginal stability (AS), anginal frequency (AF), treatment satisfaction (TS) and disease perception (DP). After being given necessary explanation by doctors, the questions were answered independently by patients.
They included the overall survival time, angina pectoris score, TCM symptom score and life quality score, where angina pectoris score, TCM symptom score and life quality score were evaluated at randomization, in 1st, 3rd, 6th, 9th, 12th month after treatment and 18th month after follow-up.
All evaluation results of SAQ were described during the period of observation, and Wilcoxon rank sum test was used for inter-group comparison.
The evaluation results in the SAQ were depicted in different observations, and inter-group comparison was tested by Wilcoxon Rank-sum test.

SMILES: CC(=O)Oc1ccccc1C(=O)O [Control group, aspirine]
- SAQ Question 1-4: Slightly limited, percent of patients (9 months after treatment, PP): (32.89%)
- SAQ Question 1-5: Mildly limited, number of patients (9 months after treatment, PP): 226
- SAQ Question 1-5: Mildly limited, percent of patients (9 months after treatment, PP): (15.75%)
- SAQ Question 1-5: Moderately limited, number of patients (9 months after treatment, PP): 77
- SAQ Question 1-5: Moderately limited, percent of patients (9 months after treatment, PP): (5.37%)
- SAQ Question 1-5: Not limited, number of patients (9 months after treatment, PP): 705
- SAQ Question 1-5: Not limited, percent of patients (9 months after treatment, PP): (49.13%)
- SAQ Question 1-5: Other reasons, number of patients (9 months after treatment, PP): 10
- SAQ Question 1-5: Other reasons, percent of patients (9 months after treatment, PP): (0.70%)
- SAQ Question 1-5: Severely limited, number of patients (9 months after treatment, PP): 9
- SAQ Question 1-5: Severely limited, percent of patients (9 months after treatment, PP): (0.63%)
- SAQ Question 1-5: Slightly limited, number of patients (9 months after treatment, PP): 408
- SAQ Question 1-5: Slightly limited, percent of patients (9 months after treatment, PP): (28.43%)
- SAQ Question 1-9: Mildly limited, % of cases (9 months after treatment, PP): (19.70%)
- SAQ Question 1-9: Mildly limited, cases (9 months after treatment, PP): 275
- SAQ Question 1-9: Moderately limited, % of cases (9 months after treatment, PP): (20.92%)
- SAQ Question 1-9: Moderately limited, cases (9 months after treatment, PP): 292
- SAQ Question 1-9: Not limited, % of cases (9 months after treatment, PP): (4.23%)
- SAQ Question 1-9: Not limited, cases (9 months after treatment, PP): 59
- SAQ Question 1-9: Other reasons, % of cases (9 months after treatment, PP): (5.80%)
- SAQ Question 1-9: Other reasons, cases (9 months after treatment, PP): 81
- SAQ Question 1-9: Severely limited, % of cases (9 months after treatment, PP): (32.38%)
- SAQ Question 1-9: Severely limited, cases (9 months after treatment, PP): 452
- SAQ Question 1-9: Slightly limited, % of cases (9 months after treatment, PP): (16.98%)
- SAQ Question 1-9: Slightly limited, cases (9 months after treatment, PP): 237
- SAQ 2nd question: 6, % of cases (12 months after treatment, FAS): (0.00%)
- SAQ 2nd question: 6, cases (12 months after treatment, FAS): 0
- SAQ 2nd question: Clearly increased, % of cases (12 months after treatment, FAS): (1.32%)
- SAQ 2nd question: Clearly increased, cases (12 months after treatment, FAS): 23
- SAQ 2nd question: Clearly reduced, % of cases (12 months after treatment, FAS): (27.55%)
- SAQ 2nd question: Clearly reduced, cases (12 months after treatment, FAS): 480
- SAQ 2nd question: Same, % of cases (12 months after treatment, FAS): (37.83%)
- SAQ 2nd question: Same, cases (12 months after treatment, FAS): 659
- SAQ 2nd question: Slightly increased, % of cases (12 months after treatment, FAS): (3.16%)
- SAQ 2nd question: Slightly increased, cases (12 months after treatment, FAS): 55
- SAQ 2nd question: Slightly reduced, % of cases (12 months after treatment, FAS): (30.14%)
- SAQ 2nd question: Slightly reduced, cases (12 months after treatment, FAS): 525
- SAQ 3rd question: 1-2 times per week, % of cases (12 months after treatment, FAS): (30.14%)
- SAQ 3rd question: 1-2 times per week, cases (12 months after treatment, FAS): 525
- SAQ 3rd question: 1-3 times per day, % of cases (12 months after treatment, FAS): (3.16%)
- SAQ 3rd question: 1-3 times per day, cases (12 months after treatment, FAS): 55
- SAQ 3rd question: <1 time per week, % of cases (12 months after treatment, FAS): (27.55%)
- SAQ 3rd question: <1 time per week, cases (12 months after treatment, FAS): 480
- SAQ 3rd question: No onset, % of cases (12 months after treatment, FAS): (0.00%)
- SAQ 3rd question: No onset, cases (12 months after treatment, FAS): 0
- SAQ 3rd question: ≧3 times per week, % of cases (12 months after treatment, FAS): (37.83%)
- SAQ 3rd question: ≧3 times per week, cases (12 months after treatment, FAS): 659
- SAQ 3rd question: ≧4 times per day, % of cases (12 months after treatment, FAS): (1.32%)
- SAQ 3rd question: ≧4 times per day, cases (12 months after treatment, FAS): 23
- SAQ Question 1-3: Mildly limited, number of patients (12 months after treatment, FAS): 54
- SAQ Question 1-3: Mildly limited, percent of patients (12 months after treatment, FAS): (3.10%)
- SAQ Question 1-3: Moderately limited, number of patients (12 months after treatment, FAS): 11
- SAQ Question 1-3: Moderately limited, percent of patients (12 months after treatment, FAS): (0.63%)
- SAQ Question 1-3: Not limited, number of patients (12 months after treatment, FAS): 1471
- SAQ Question 1-3: Not limited, percent of patients (12 months after treatment, FAS): (84.35%)
- SAQ Question 1-3: Other reasons, number of patients (12 months after treatment, FAS): 10
- SAQ Question 1-3: Other reasons, percent of patients (12 months after treatment, FAS): (0.57%)
- SAQ Question 1-3: Severely limited, number of patients (12 months after treatment, FAS): 2
- SAQ Question 1-3: Severely limited, percent of patients (12 months after treatment, FAS): (0.11%)
- SAQ Question 1-3: Slightly limited, number of patients (12 months after treatment, FAS): 196
- SAQ Question 1-3: Slightly limited, percent of patients (12 months after treatment, FAS): (11.24%)
- SAQ Question 1-4: Mildly limited, number of patients (12 months after treatment, FAS): 236
- SAQ Question 1-4: Mildly limited, percent of patients (12 months after treatment, FAS): (13.53%)
- SAQ Question 1-4: Moderately limited, number of patients (12 months after treatment, FAS): 66
- SAQ Question 1-4: Moderately limited, percent of patients (12 months after treatment, FAS): (3.78%)
- SAQ Question 1-4: Not limited, number of patients (12 months after treatment, FAS): 853
- SAQ Question 1-4: Not limited, percent of patients (12 months after treatment, FAS): (48.91%)
- SAQ Question 1-4: Other reasons, number of patients (12 months after treatment, FAS): 11
- SAQ Question 1-4: Other reasons, percent of patients (12 months after treatment, FAS): (0.63%)
- SAQ Question 1-4: Severely limited, number of patients (12 months after treatment, FAS): 13
- SAQ Question 1-4: Severely limited, percent of patients (12 months after treatment, FAS): (0.75%)
- SAQ Question 1-4: Slightly limited, number of patients (12 months after treatment, FAS): 565
- SAQ Question 1-4: Slightly limited, percent of patients (12 months after treatment, FAS): (32.40%)
- SAQ Question 1-5: Mildly limited, number of patients (12 months after treatment, FAS): 260
- SAQ Question 1-5: Mildly limited, percent of patients (12 months after treatment, FAS): (14.92%)
- SAQ Question 1-5: Moderately limited, number of patients (12 months after treatment, FAS): 79
- SAQ Question 1-5: Moderately limited, percent of patients (12 months after treatment, FAS): (4.53%)
